Values after ≈ are worked out from the molar mass of the structure shown. Where two headings read alike, the source gives them in different places.
Tests used:
[1] = tested on: B. fragilis 25285; assay: In vitro antibacterial activity (anaerobic bacteria), MIC; format: cell-based; conditions: Bacteroides fragilis
[2] = tested on: Escherichia coli NIHJ JC-2; assay: In vitro antibacterial activity (aerobic bacteria), MIC; format: cell-based; conditions: NIHJJC2, aerobic, Gram -, 10^6 cells/ml
[3] = tested on: Veillonella parvula KYA 10790; assay: In vitro antibacterial activity (anaerobic bacteria), MIC; format: cell-based; conditions: KYA10790
[4] = tested on: B. fragilis 0558; assay: as above; format: cell-based; conditions: Bacteroides fragilis
[5] = tested on: K. pneumoniae 1-220S; assay: In vitro antibacterial activity (aerobic bacteria), MIC; format: cell-based; conditions: Klebsiella pneumoniae, 1220S, Gram -, 10^6 cells/ml
Experimental: (§1) Minimal inhibitory concentrations (MICs) were determined in accordance with the method recommended by Japan Society of Chemotherapy.

[6] = tested on: P. mirabilis IID 994; assay: as above; format: cell-based; conditions: Proteus mirabilis, IID994, Gram -, 10^6 cells/ml
Experimental: as §1

[7] = tested on: Acinetobacter anitratus IID 876; assay: as above; format: cell-based; conditions: 10^6 cells/ml
Experimental: as §1

[8] = tested on: Morganella morganii IID 602; assay: as above; format: cell-based; conditions: 10^6 cells/ml
Experimental: as §1

[9] = tested on: Serratia marcescens IID 618; assay: as above; format: cell-based; conditions: IID618, Gram -, 10^6 cells/ml
Experimental: as §1

[10] = tested on: Staphylococcus aureus 209 P; assay: as above; format: cell-based; conditions: Gram +, 10^6 cells/ml
Experimental: as §1

[11] = tested on: S. aureus IID 670 (Terajima); assay: as above; format: cell-based; conditions: Staphylococcus aureus, IID670, Gram +, 10^6 cells/ml
Experimental: as §1

[12] = tested on: S. epidermidis IID 866; assay: as above; format: cell-based; conditions: Staphylococcus epidermidis, IID866, Gram +, 10^6 cells/ml
Experimental: as §1

[13] = tested on: Pseudomonas aeruginosa V-1; assay: as above; format: cell-based; conditions: Gram -, 10^6 cells/ml
Experimental: as §1

[14] = tested on: Alcaligenes faecalis 0114002; assay: as above; format: cell-based; conditions: Alcaligenes faecalis, 0114002, aerobic; Gram -; 10^6 cells/ml
[15] = tested on: gram-negative and gram-positive bacteria; conditions: cited from earlier work
[16] = tested on: Peptococcus magnus KY 017; assay: In vitro antibacterial activity (anaerobic bacteria), MIC; format: cell-based; conditions: 10^6 cells/ml
Experimental: as §1

[17] = tested on: Yersinia enterocolitica IID 981; assay: microbe, parasite or virus in culture; format: cell-based; conditions: IID981
[18] = tested on: C. ramosum; assay: In vitro antibacterial activity (anaerobic bacteria), MIC; format: cell-based; conditions: anaerobic, Gram +, 10^6 cells/ml
[19] = tested on: B. thetaiotaomicron (0661); assay: as above; format: cell-based; conditions: anaerobic, Gram -, 10^6 cells/ml
[20] = tested on: Bacillus subtilis PCI 219; assay: In vitro antibacterial activity (aerobic bacteria), MIC; format: cell-based; conditions: PCI219
[21] = tested on: Citrobacter freundii IID 976; assay: as above; format: cell-based
[22] = tested on: P. aeruginosa IFO 12689; assay: as above; format: cell-based; conditions: Pseudomonas aeruginosa, IFO12689
[23] = tested on: Bacteroides fragilis GM 7000; assay: In vitro antibacterial activity (anaerobic bacteria), MIC; format: cell-based; conditions: GM7000
[24] = tested on: Proteus vulgaris IFO 3167; assay: In vitro antibacterial activity (aerobic bacteria), MIC; format: cell-based; conditions: IFO3167, Gram -, 10^6 cells/ml
Experimental: as §1

[25] = tested on: E. coli ATCC 10536; assay: as above; format: cell-based; conditions: Escherichia coli, ATCC10536, Gram -, 10^6 cells/ml
Experimental: as §1

[26] = tested on: Shigella sonnei IID 969; assay: as above; format: cell-based; conditions: IID969, Gram -, 10^6 cells/ml
Experimental: as §1

[27] = tested on: Fusobacterium necrophorum S-45; assay: In vitro antibacterial activity (anaerobic bacteria), MIC; format: cell-based; conditions: S45, anaerobic, Gram -, 10^6 cells/ml, read-out: MIC
[28] = tested on: Eubacterium lentum GAI 5242; assay: as above; format: cell-based; conditions: Eggerthella lenta, GAI5242
[29] = tested on: P. maltophilia GIFU 2491; assay: In vitro antibacterial activity (aerobic bacteria), MIC; format: cell-based; conditions: Stenotrophomonas maltophilia, GIFU2491; aerobic; Gram -; 10^6 cells/ml; read-out: MIC
[30] = tested on: Pst micros UPI 5464-1; assay: microbe, parasite or virus in culture; format: cell-based; conditions: anaerobic; Gram +; 10^6 cells/ml
[31] = tested on: Enterobacter cloacae IID 977; assay: In vitro antibacterial activity (aerobic bacteria), MIC; format: cell-based; conditions: IID977
[32] = tested on: Klebsiella pneumoniae KY(GN)6445; assay: as above; format: cell-based
[33] = tested on: Peptostreptococcus anaerobius KYA 27337; assay: In vitro antibacterial activity (anaerobic bacteria), MIC; format: cell-based; conditions: KYA27337, anaerobic, Gram +, 10^6 cells/ml, read-out: MIC
[34] = tested on: P. aeruginosa IID 1210; assay: In vitro antibacterial activity (aerobic bacteria), MIC; format: cell-based; conditions: Pseudomonas aeruginosa, IID1210, aerobic; Gram -; 10^6 cells/ml
[35] = tested on: P. cepacia GIFU 518; assay: as above; format: cell-based; conditions: Burkholderia cepacia, GIFU518; aerobic; Gram -; 10^6 cells/ml; read-out: MIC
[36] = tested on: Clostridium difficile I-E; assay: In vitro antibacterial activity (anaerobic bacteria), MIC; format: cell-based; conditions: Clostridioides difficile; anaerobic; Gram +; 10^6 cells/ml; read-out: MIC
[37] = tested on: Propionibacterium acens 11828; assay: as above; format: cell-based; conditions: anaerobic, Gram +, 10^6 cells/ml, read-out: MIC
[38] = tested on: F. varium KYA 8501; assay: as above; format: cell-based; conditions: Fusobacterium varium, KYA8501; anaerobic; Gram -; 10^6 cells/ml; read-out: MIC
[39] = tested on: Salmonella enteritidis IID 604; assay: In vitro antibacterial activity (aerobic bacteria), MIC; format: cell-based; conditions: Salmonella enterica
[40] = tested on: B. distasonis 8503; assay: In vitro antibacterial activity (anaerobic bacteria), MIC; format: cell-based; conditions: Parabacteroides distasonis, Gram -, 10^6 cells/ml, read-out: MIC
[41] = tested on: C. perfringens KYA 13123; assay: microbe, parasite or virus in culture; format: cell-based; conditions: Clostridium perfringens, KYA13123
[42] = Acinetobacter calcoaceticus, IID876, Gram -, read-out: MIC
[43] = Morganella morganii, IID602, Gram -, read-out: MIC
[44] = Pseudomonas aeruginosa, V1, aerobic, read-out: MIC
[45] = anaerobic, Gram -, 10^6 cells/ml, read-out: MIC

O=C(O)c1cn(C2CC2)c2cc(N3CCNCC3)c(F)cc2c1=O [CPFX, ciprofloxacin, reference compound]
MIC [1]: 3.13 µg/mL (≈ 9.45 µM) | MIC [2]: ≤ 0.0063 µg/mL | MIC [3]: 0.2 µg/mL (≈ 0.604 µM) | MIC [4]: 3.13 µg/mL (≈ 9.45 µM) | MIC [5]: 0.05 µg/mL (≈ 0.151 µM) | MIC [6]: 0.025 µg/mL (≈ 0.0754 µM) | MIC [7, 42]: 0.1 µg/mL (≈ 0.302 µM) | MIC ([7]; Gram -): 0.20 µg/mL (≈ 0.604 µM) | MIC ([8]; Gram -): 0.025 µg/mL (≈ 0.0754 µM) | MIC [8, 43]: 0.05 µg/mL (≈ 0.151 µM) | MIC [9]: 0.05 µg/mL (≈ 0.151 µM) | MIC [10]: 0.2 µg/mL (≈ 0.604 µM) | MIC [11]: 0.2 µg/mL (≈ 0.604 µM) | MIC [12]: 0.2 µg/mL (≈ 0.604 µM) | MIC [13, 44]: 0.05 µg/mL (≈ 0.151 µM) | MIC ([13]; aerobic): 0.10 µg/mL (≈ 0.302 µM) | MIC [14]: 0.2 µg/mL (≈ 0.604 µM) | antibacterial activity compared with norfloxacin [15]: stronger antibacterial activity than norfloxacin | antibacterial potency against gram-positive bacteria ([15]; compared with gram-negative bacteria): considerably inferior to that against gram-negative bacteria | MIC ([16]; Gram +): 0.20 µg/mL (≈ 0.604 µM) | MIC [17]: 0.05 µg/mL (≈ 0.151 µM) | MIC [18]: 6.25 µg/mL (≈ 18.9 µM) | MIC [19]: 25 µg/mL (≈ 75.4 µM) | MIC [20]: 0.05 µg/mL (≈ 0.151 µM) | MIC ([21]; aerobic, Gram -, 10^6 cells/ml): 0.0063 µg/mL (≈ 0.019 µM) | MIC [22]: 0.2 µg/mL (≈ 0.604 µM) | MIC [23]: 6.25 µg/mL (≈ 18.9 µM)

CCn1cc(C(=O)O)c(=O)c2cc(F)c(N3CCC(N)C3)c(C)c21 (centres unmarked) [Exp. 25, 7-(3-Amino-1-pyrrolidinyl)-1-ethyl-6-fluoro-1,4-dihydro-8-methyl-4-oxo-3-quinolinecarboxylic acid]
MIC [1, 45]: 1.56 µg/mL (≈ 4.68 µM) | MIC [2]: 0.0125 µg/mL (≈ 0.0375 µM) | MIC [3]: 0.39 µg/mL (≈ 1.17 µM) | MIC [4, 45]: 1.56 µg/mL (≈ 4.68 µM) | MIC [24]: 0.0125 µg/mL (≈ 0.0375 µM) | MIC [5]: 0.1 µg/mL (≈ 0.3 µM) | MIC [6]: 0.05 µg/mL (≈ 0.15 µM) | MIC [7, 42]: 0.78 µg/mL (≈ 2.34 µM) | MIC [8, 43]: 0.2 µg/mL (≈ 0.6 µM) | MIC [9]: 0.05 µg/mL (≈ 0.15 µM) | MIC [10]: 0.2 µg/mL (≈ 0.6 µM) | MIC [11]: 0.2 µg/mL (≈ 0.6 µM) | MIC [25]: 0.025 µg/mL (≈ 0.075 µM) | MIC [26]: 0.05 µg/mL (≈ 0.15 µM) | MIC [12]: 0.2 µg/mL (≈ 0.6 µM) | MIC [13, 44]: 0.39 µg/mL (≈ 1.17 µM) | MIC [14]: 0.78 µg/mL (≈ 2.34 µM) | MIC [27]: 1.56 µg/mL (≈ 4.68 µM) | MIC [28]: 0.78 µg/mL (≈ 2.34 µM) | MIC [29]: 1.56 µg/mL (≈ 4.68 µM) | MIC [30]: 0.39 µg/mL (≈ 1.17 µM) | MIC ([16]; Finegoldia magna, KY017, Gram +, read-out: MIC): 0.39 µg/mL (≈ 1.17 µM) | MIC [31]: 0.1 µg/mL (≈ 0.3 µM) | MIC [32]: 0.1 µg/mL (≈ 0.3 µM) | MIC [33]: 1.56 µg/mL (≈ 4.68 µM) | MIC [34]: 0.78 µg/mL (≈ 2.34 µM) | MIC [17]: 0.1 µg/mL (≈ 0.3 µM) | MIC ([18]; Thomasclavelia ramosa, read-out: MIC): 12.5 µg/mL (≈ 37.5 µM) | MIC [35]: 1.56 µg/mL (≈ 4.68 µM) | MIC ([19]; Bacteroides thetaiotaomicron, read-out: MIC): 6.25 µg/mL (≈ 18.7 µM) | MIC [36]: 6.25 µg/mL (≈ 18.7 µM) | MIC [20]: 0.1 µg/mL (≈ 0.3 µM) | MIC [37]: 12.5 µg/mL (≈ 37.5 µM) | MIC [38]: 6.25 µg/mL (≈ 18.7 µM) | MIC ([21]; Citrobacter freundii, IID976): 0.05 µg/mL (≈ 0.15 µM) | MIC [39]: 0.05 µg/mL (≈ 0.15 µM) | MIC ([22]; aerobic, Gram -, 10^6 cells/ml, read-out: MIC): 1.56 µg/mL (≈ 4.68 µM) | MIC [40]: 6.25 µg/mL (≈ 18.7 µM) | MIC [41]: 0.78 µg/mL (≈ 2.34 µM) | MIC [23]: 3.13 µg/mL (≈ 9.39 µM)

CCn1cc(C(=O)O)c(=O)c2cc(F)c(N3CCNCC3)cc21 [norfloxacin]
antibacterial activity ([15]; gram-negative bacteria including Pseudomonas aeruginosa and gram-positive bacteria): high antibacterial activity

Reference: US4894458A, “Quinolonecarboxylic acid derivatives and their preparation” (Kyorin Pharmaceutical Co., Ltd., priority 1986, dated 1990)
